Experimental data reported in patent publication US5641798A, “Bicyclic compounds and their use as excitatory amino acid receptor antagonists” (Eli Lilly and Company, priority 1995, dated 1997).
Several values for one entry are separate records, joined by “and”; a condition that tells them apart may be missing. Equal entries are not always repeated. Where two headings read alike, the source gives them in different places.

Tests used:
CNS ischemia = conditions: rabbits; cited from earlier work
focal cerebral ischemia [1] = conditions: cats; cited from earlier work
formalin model = conditions: mouse; cited from earlier work
NMDA receptor [2] = assay: [3H]CGS19755 radioligand binding to Triton-X-treated synaptosomal membranes of rat forebrain; design: species or system rat (male Sprague-Dawley); conditions: [3H]CGS19755 10 nM, ice-bath 30 min, mean, standard error, n=3
Method: The formula I compounds were tested for their ability to inhibit NMDA receptor binding to rat membranes in a radioligand binding assay using [^3 H]CGS19755. For these radioligand binding assays, male Sprague-Dawley rats were used. Displacement of the specific binding [^3 H]CGS19755 (10 nM)to Triton-X-treated synaptosomal membranes of rat forebrain was used to determine NMDA receptor affinity. Non-specific binding was determined using 10 μM L-glutamate. Samples were incubated in an ice-bath for 30 minutes, and bound ligand was separated from the free ligand by rapid filtration through WHATMAN GF/B glass fiber filters. Murphy et al, British J. Pharmacol., 95, 932-938 (1988). The concentration of the formula I compound that inhibited 50% binding (IC50, mean standard error, n=3)was calculated by linear regression of displacement data transformed to the Hill equation as described by Bennett. Bennett, Neurotransmitter Receptor Binding, 57-90 (1978).

NMDA receptor [3] = assay: [3H]MK-801 binding to well washed rat cortical membranes; conditions: [3H]MK-801 2.5 nM, glutamate 0.001 μM and glycine 10 μM, 27° C., two hours, mean of three experiments
Method: The formula I compounds were also tested for their ability to inhibit NMDA receptor binding using [^3 H]MK-801 (New England Nuclear, Boston, Mass.). Rat brain cortices were extensively washed to remove endogenous glutamate and glycine. Cortices were homogenized in 20 volumes of ice-cold 0.32M sucrose and centrifuged at 1,000 xg for ten minutes. The supernatant was then centrifuged at 20,000 xg for 20 minutes. The resulting pellet was resuspended in 30 volumes of distilled water and centrifuged at 8,000 xg for 20 minutes. The resulting supernatant was centrifuged at 45,000 xg for 20 minutes and the pellet frozen in liquid nitrogen for at least 24 hours. On the day of the assay, the pellet was thawed at room temperature and resuspended in 30 volumes of ice-cold distilled water and centrifuged at 45,000 xg for 20 minutes. The final pellet was resuspended in 50 mM Tris (pH 7.4)at a concentration of 10 vol/gram wet weight of tissue.
The binding of [^3 H]MK-801 to well washed rat cortical membranes was conducted in the presence of added glutamate (0.001 μM) and glycine (10 μM). Antagonists were incubated with [^3 H]MK-801 (2.5 nM) and membrane aliquots (μg/ml protein)in a final volume of 1 ml at 27° C. for two hours. Nonspecific [^3 H]MK-801 binding was determined in the presence of 100 μM MK-801. Assays were terminated by filtering the samples over Whatman GF/B glass-fiber filters, presoaked in 0.05% polyethyleneimine, followed by a 10 ml ice cold saline wash.
These assays were performed in triplicate, and the mean values of three separate experiments were used to obtain the half maximal effective concentration. Final protein concentrations (0.5 mg/ml)for each assay were determined using the Lowry et al. (1951)method. Lowry, Rosebrough, Farr, and Randall, J. Biol. Chem., 193, 265-275 (1951). Analysis of the data was performed using a four-parameter logistic equation Graphpad Software San Diego, Calif.).

NMDA receptor [4] = assay: Antagonism of NMDA-induced depolarization of rat cortical wedges; format: cell-based; conditions: for NMDA receptor antagonist activity: cortical wedge assay, Table II
Method: The depolarization of rat cortical wedges was used to test the selectivity and potency of the formula I compounds as NMDA antagonist using a technique similar to that described by Harrison and Simmonds. Harrison and Simmonds, Bri. J. Pharmacol., 84, 381-391 (1984). Generally, 4-ml aliguots of NMDA (40 μM)were superfused (2 ml/min)on the gray matter at intervals of 15 to 20 minutes until stable responses where obtained. The tissue was then exposed for 15 minutes to various concentrations of the formula I compounds before retesting the agonist. The IC50 values were calculated from linear regression of log dose-response curves, each point the mean of at least three observations on separate slices from more than one animal.
The cortical wedge assay distinguishes between agonist and antagonist activity.

focal cerebral ischemia [5] = conditions: rats; cited from earlier work
[6] = test system: warm water tail withdrawal; conditions: rhesus monkeys; cited from earlier work

Structure (SMILES)	IC50 (NMDA receptor [2])	IC50 (NMDA receptor [3]) [µM]	IC50 (NMDA receptor [4]; 0.25 h) [µM]	also measured
O=C(O)[C@H]1C[C@@H](Cc2nn[nH]n2)CCN1 (relative stereo) [LY233053]				protection in CNS ischemia model (CNS ischemia): provided protection
O=C(O)[C@H]1CN(C/C=C/P(=O)(O)O)CCN1 [D-(-)CPP-ene]				protection in focal cerebral ischemia model (focal cerebral ischemia [1]): provided protection
NC(CCCP(=O)(O)O)C(=O)O (racemic) [DL-AP5]				analgesia in formalin model (formalin model): analgesic
O=C(O)CCC1CC[C@H]2CN[C@H](C(=O)O)[C@@H]12 (stereo partly drawn) [Compound 20, (1SR,2SR,5RS,8SR)-3-Aza-8-(2-carboxyethyl)bicyclo[3.3.0]octane-2-carboxylic Acid and (1SR,2SR,5RS,8RS)-3-Aza-8-(2-carboxyethyl)bicyclo[3.3.0]octane-2-carboxylic Acid]	1.44 ± 0.04 µM	47.3 ± 21	> 100	
O=C(O)[C@H]1NC[C@@H]2CCC(Cc3nn[nH]n3)[C@@H]21 (stereo partly drawn) [Compound 12, (1SR,2SR,5RS,8SR)-3-Aza-8-((1(2)H-tetrazol-5-yl)methyl)bicyclo[3.3.0]octane-2-carboxylic Acid and (1SR,2SR,5RS,8RS)-3-Aza-8-((1(2)H-tetrazol-5-yl)methyl)bicyclo[3.3.0]octane-2-carboxylic Acid]	0.73 µM and < 1 µM	49.7 ± 14.2	9.5 ± 5	NMDA receptor antagonist activity (NMDA receptor [4]): NMDA receptor antagonists
O=C(O)[C@H]1NC[C@@H]2CCC(OCc3nn[nH]n3)[C@@H]21 (stereo partly drawn) [Compound 27, (1SR,2SR,5RS,8SR)-3-Aza-8-((1(2)H-tetrazol-5-yl)methoxy)bicyclo[3.3.0]octane-2-carboxylic Acid and (1SR,2SR,5RS,8RS)-3-Aza-8-((1(2)H-tetrazol-5-yl)methoxy)bicyclo[3.3.0]octane-2-carboxylic Acid]	5.66 ± 0.15 µM	> 100		
O=C(O)CC1CC[C@H]2CN[C@H](C(=O)O)[C@@H]12 (stereo partly drawn) [Compound 13, (1SR,2SR,5RS,8SR)-3-Aza-8-(carboxymethyl)bicyclo[3.3.0]octane-2-carboxylicAcid and (1SR,2SR,5RS,8RS)-3-Aza-8-(carboxymethyl)bicyclo[3.3.0]octane-2-carboxylicAcid]	1.19 ± 0.54 µM	39 ± 8.7	52 ± 8	
O=C(O)[C@H]1NC[C@@H]2CC[C@H](Cc3nn[nH]n3)[C@@H]21 (relative stereo) [Compound 33, (1SR,2SR,5RS,8RS)-3-Aza-8-((1(2)H-tetrazol-5-yl)methyl)bicyclo[3.3.0]octane-2-carboxylic Acid]	0.67 µM and < 1 µM	36.6 ± 7	28.6 ± 5.6	NMDA receptor antagonist activity (NMDA receptor [4]): NMDA receptor antagonists
O=C(O)[C@H]1NC[C@@H]2CCC(CCOCc3nn[nH]n3)[C@@H]21 (stereo partly drawn) [Compound 23, (1SR,2SR, 5RS,8SR)-3-Aza-8-(2-(1(2)H-tetrazol-5-ylmethoxy)ethyl)bicyclo[3.3.0]octane-2-carboxylic Acid and (1SR,2SR,5RS,8RS)-3-Aza-8-(2-(1(2)H-tetrazol-5-ylmethoxy)ethyl)bicyclo[3.3.0]octane-2-carboxylic Acid]	> 100 µM	> 100		IC50 (NMDA receptor [4]; NMDA 40 μM, 15 min exposure to compound, rat cortical wedges, read-out: Antagonism of Cortical Wedge Depolarization IC50): > 100 µM
O=C(O)[C@H]1NC[C@@H]2CCC(CCSc3nn[nH]n3)[C@@H]21 (stereo partly drawn) [Compound 22, (1SR,2SR,5RS,8SR)-3-Aza-8-(2-(1(2)H-tetrazole-5-thio)ethyl)bicyclo[3.3.0]octane-2-carboxylic Acid and (1SR,2SR,5RS,8RS)-3-Aza-8-(2-(1(2)H-tetrazole-5-thio)ethyl)bicyclo[3.3.0]octane-2-carboxylic Acid]	26.1 ± 6.13 µM	> 100		
O=C(O)[C@H]1NC[C@@H]2CC[C@@H](Cc3nn[nH]n3)[C@@H]21 (relative stereo) [Compound 38, (1SR,2SR,5RS,8SR)-3-Aza-8-((1(2)H-tetrazol-5-yl)methyl)bicyclo[3.3.0]octane-2-carboxylic Acid]	3.13 ± 0.58 µM	47.3 ± 7.62	> 100	
O=C(O)C1NCC2CCC(CSc3nn[nH]n3)C21 (stereo not drawn) [Compound 32, (1SR,2SR,5RS,8SR)-3-Aza-8-((1(2)H-tetrazole-5-thio)methyl)bicyclo[3.3.0]octane-2-carboxylic Acid]	1.31 ± 0.48 µM	27.8 ± 12.2	59.7 ± 10	
C[C@]12N[C@H](Cc3ccccc31)c1ccccc12 [dizocilpine]				protection in focal cerebral ischemia model (focal cerebral ischemia [1]): provided protection; protection in focal cerebral ischemia model (focal cerebral ischemia [5]): provided protection
O=C(O)[C@H]1NC[C@@H]2CCC(CCc3nn[nH]n3)[C@@H]21 (stereo partly drawn) [Compound 21, (1SR,2SR,5RS,8SR)-3-Aza-8-(2-(1 (2)H-tetrazol-5-yl)ethyl)bicyclo[3.3.0]octane-2-carboxylic Acid and (1SR,2SR,5RS,8RS)-3-Aza-8-(2-(1(2)H-tetrazol-5-yl)ethyl)bicyclo[3.3.0]octane-2-carboxylic Acid]	4.5 ± 0.98 µM	37.7 ± 9.3	> 100	
O=C(O)[C@@H]1C[C@H](CP(=O)(O)O)CCN1 [CGS 19755]				protection in focal cerebral ischemia model (focal cerebral ischemia [5]): provided protection; analgesia in warm water tail withdrawal procedure [6]: analgesic
